Measurements: patent publication US20220144809A1, “COMPOUNDS AND METHODS FOR THE TARGETED DEGRADATION OF ANDROGEN RECEPTOR AND ASSOCIATED METHODS OF USE” (Arvinas Operations, Inc., priority 2020, published 2022)

System: Androgen Receptor (AR)
Assay: Androgen Receptor ELISA assay (AR degradation in LNCaP and/or VCaP cells)
Format: cell-based
Details: degradation of AR, 5 hours incubation, R1881 in media
Experimental: Assay for Testing AR Degradation Driven by Compounds of the Present Disclosure.
Androgen Receptor ELISA Assay. Compounds were evaluated in the following assay in LNCaP and/or VCaP cells utilizing similar protocols. The protocols used with VCaP cells are described below. The androgen receptor ELISA assay was performed using PathScan AR Sandwich ELISA (Cell Signaling Catalog#12850) according to the following assay steps.
VCaP cells were seeded at 40,000 cells/well at a volume of 100 μL/well in VCaP assay medium [Phenol red free RPMI (Gibco Cat#11835-030); 5% Charcoal Stripped (Dextran treated) FBS (Omega Scientific, Cat#FB-04); 1% penstrep (Life Technologies, Gibco Cat#: 10378-016)] in Corning 3904 plates. The cells were grown for a minimum of 3 days.
First, cells were dosed with compounds diluted in […]—in a polypropylene plate avoiding the use of outer columns according to the following protocol: (1)(i) 1000× stock plate in DMSO was made; (ii) 20 mM stock diluted 1/6.7 with DMSO (5 μL+28.3 μL DMSO)=3 mM into row H; (iii) serial dilutions in ½ log doses (10 μL of bifunctional compound+20 μL DMSO) was performed from row H towards row B with row A being reserved for DMSO; (iv) 7 doses total (final concentration in this 1000× plate will be 3 mM, 1 mM, 333 μM, 111 μM, etc). (2)(i) A 10× stock plate in media was made; (ii) 2.5 μL of the 1000× stock was trasnferred to a new 10× stock plate (use 12 channel pipet, start at A (DMSO control) work thru H. When 247.5 μL of media was added to this plate, it served as a 10× stock; (iii) made media+1 nM R1881 for making 10× stock plate; (iv) added 247.5 μL of media with 1 nM R1881 to each well of the 10× stock plate, mix.
Then 22 μL of 10× stock was added to cells and incubated for 5 hours. 1× Cell Signaling Cell lysis buffer was made (Catalogue #9803; comes with the kit) to have […], and was kept on ice. Media was aspirated, and 100 μL 1× cell lysis buffer/well was added. The cells were placed on a shaker located in a cold room for 10 minutes and shaken at speed 7. The lysate mixture was mix and 20 μL transferred to 100 μl of Diluent in ELISA plate (0.15 μg/ml-0.075 μg/ml). The lysate-diluent mixture was store at 4° C. overnight on a shaker located in a cold room at speed 5 (gentle swirl).
The lysate-diluent mixture was shaken for 30 minutes at 37° C. The mouse AR antibody, anti-mouse antibody, TMB, and STOP solution were allowed to come to room temperature. The 1×ELISA buffer included in kit was made and loaded in reservoir. Media from the plate was discarded, the ELISA plate was tapped hard on paper towel, and washed 4×200 μl ELISA wash buffer using a plate washer for the first three washes and an eight channel aspirator for the fourth wash to more thoroughly aspirate the solution.
Next, 100 μL/well of mouse AR detection Ab was added; the plate was covered and shaken at 37° C. for 1 hour; media was discarded from the plates, the plates tapped on a paper towel and washed four times with 200 μL ELISA wash buffer with a plate washer for the first three washes and an eight channel aspirator for the fourth wash; 100 μL/well of anti-mouse—HRP conjugated Ab (comes with the kit) was added; the plates wascover and shaken at 37° C. for 30 minutes; the TMB reagent was allowed to come to room temperature; the media from the plate was discarded, the plates tapped on paper towel, and washed four times with 200 μL ELISA wash buffer with a plate washer for the first three washes and an eight channel aspirator for the fourth wash; plates were tapped on paper towl; 100 μL TMB was added to each well and the plate shaken for 2 minutes—while watching color. STOP solution (100 μL) was added when light blue color developed. The plates were shake and read at 450 nm.
Data was analyzed and plotted using GraphPad Prism software. Exemplary compounds of Table 1 were assayed and the data shown below in Table 2. […]

Row | SMILES | DC50 [nM] | Dmax Code
1 | COc1cc(N2C(=O)C3(CCC3)N(c3ccc(N4CCC(CN5CCN(c6ccc7c(c6)C(=O)N(C6CCC(=O)NC6=O)C7=O)CC5)CC4)c(F)c3)C2=S)ccc1C#N (stereo not shown) [Compound 6, 4-(5-(4-(4-((4-(2-(2,6-dioxopiperidin-3-yl)-1,3-dioxoisoindolin-5-yl)piperazin-1-yl)methyl)piperidin-1-yl)-3-fluorophenyl)-8-oxo-6-thioxo-5,7-diazaspiro[3.4]octan-7-yl)-2-methoxybenzonitrile] | 1 to 10 | A (A≥70)
2 | N#Cc1ncc(N2C(=O)C3(CCC3)N(c3ccc(C4CCN(CC5CCN(c6ccc7c(c6)C(=O)N(C6CCC(=O)NC6=O)C7)CC5)CC4)cc3)C2=S)cc1Cl (stereo not shown) [Compound 11] | 1 to 10 | C (C<50)
3 | CC(C)N(CC1CCN(c2ccc(N3C(=S)N(c4cnc(C#N)c(C(F)(F)F)c4)C(=O)C34CCC4)cn2)CC1)[C@H]1C[C@H](Oc2ccc3c(c2)C(=O)N(C2CCC(=O)NC2=O)C3=O)C1 (stereo partly shown) [Compound 13, 5-(5-(6-(4-((((1r,3r)-3-((2-(2,6-dioxopiperidin-3-yl)-1,3-dioxoisoindolin-5-yl)oxy)cyclobutyl)(isopropyl)amino)methyl)piperidin-1-yl)pyridin-3-yl)-8-oxo-6-thioxo-5,7-diazaspiro[3.4]octan-7-yl)-3-(trifluoromethyl)picolinonitrile] | 1 to 10 | C (C<50)
4 | N#Cc1ncc(N2C(=O)C3(CCC3)N(c3ccc(OC4CCN(CC5CCN(c6ccc7c(c6)C(=O)N(C6CCC(=O)NC6=O)C7=O)CC5)CC4)c(F)c3)C2=S)cc1Cl (stereo not shown) [Compound 10, 3-chloro-5-(5-(4-((1-((1-(2-(2,6-dioxopiperidin-3-yl)-1,3-dioxoisoindolin-5-yl)piperidin-4-yl)methyl)piperidin-4-yl)oxy)-3-fluorophenyl)-8-oxo-6-thioxo-5,7-diazaspiro[3.4]octan-7-yl)picolinonitrile] | 1 to 10 | A (A≥70)
5 | N#Cc1ncc(N2C(=O)C3(CCC3)N(c3ccc(OC4CCN(CC5CCN(c6ccc7c(c6)C(=O)N(C6CCC(=O)NC6=O)C7=O)CC5)CC4)nc3)C2=S)cc1C(F)(F)F (stereo not shown) [Compound 12, 5-(5-(6-((1-((1-(2-(2,6-dioxopiperidin-3-yl)-1,3-dioxoisoindolin-5-yl)piperidin-4-yl)methyl)piperidin-4-yl)oxy)pyridin-3-yl)-8-oxo-6-thioxo-5,7-diazaspiro[3.4]octan-7-yl)-3-(trifluoromethyl)picolinonitrile] | 1 to 10 | B (50≤B<70)
6 | N#Cc1ncc(N2C(=O)C3(CCC3)N(c3ccc(N4CCC(CN5CCN(c6ccc7c(c6)C(=O)N(C6CCC(=O)NC6=O)C7)CC5)CC4)cc3)C2=S)cc1Cl (stereo not shown) [Compound 2, 3-chloro-5-(5-(4-(4-((4-(2-(2,6-dioxopiperidin-3-yl)-3-oxoisoindolin-5-yl)piperazin-1-yl)methyl)piperidin-1-yl)phenyl)-8-oxo-6-thioxo-5,7-diazaspiro[3.4]octan-7-yl)picolinonitrile] | < 1 | A (A≥70)
7 | CC(C)N(CC1CCN(c2ccc(Cn3c(=O)n(-c4ccc(C#N)c(C(F)(F)F)c4)c4ccccc43)cc2)CC1)[C@H]1C[C@H](Oc2ccc3c(c2)C(=O)N(C2CCC(=O)NC2=O)C3=O)C1 (stereo partly shown) [Compound 25, 4-(3-(4-(4-((((1r,3r)-3-((2-(2,6-dioxopiperidin-3-yl)-1,3-dioxoisoindolin-5-yl)oxy)cyclobutyl)(isopropyl)amino)methyl)piperidin-1-yl)benzyl)-2-oxo-2,3-dihydro-1H-benzo[d]imidazol-1-yl)-2-(trifluoromethyl)benzonitrile] | ≥ 100 | C (C<50)
8 | CCN(CC1CCN(c2ccc(CN3C(=S)N(c4ccc(C#N)c(C(F)(F)F)c4)C(=O)C3(C)C)cn2)CC1)[C@H]1C[C@H](Oc2ccc3c(c2)C(=O)N(C2CCC(=O)NC2=O)C3=O)C1 (stereo partly shown) [Compound 4, 4-(3-((6-(4-((((1r,3r)-3-((2-(2,6-dioxopiperidin-3-yl)-1,3-dioxoisoindolin-5-yl)oxy)cyclobutyl)(ethyl)amino)methyl)piperidin-1-yl)pyridin-3-yl)methyl)-4,4-dimethyl-5-oxo-2-thioxoimidazolidin-1-yl)-2-(trifluoromethyl)benzonitrile] | < 1 | C (C<50)
9 | Cc1c(C#N)c(-c2ccc(C#N)cc2)c(C)n1Cc1ccc(OCCCN2CCC(CN3CCN(c4ccc5c(c4)C(=O)N(C4CCC(=O)NC4=O)C5=O)CC3)CC2)cc1 (stereo not shown) [Compound 19, 4-(4-cyanophenyl)-1-(4-(3-(4-((4-(2-(2,6-dioxopiperidin-3-yl)-1,3-dioxoisoindolin-5-yl)piperazin-1-yl)methyl)piperidin-1-yl)propoxy)benzyl)-2,5-dimethyl-1H-pyrrole-3-carbonitrile] | ≥ 100 | C (C<50)
10 | N#Cc1ccc(N2C(=O)C3(CCC3)N(c3ccc(N4CCC(CN5CCN(c6ccc7c(c6)C(=O)N(C6CCC(=O)NC6=O)C7=O)CC5)CC4)c(F)c3)C2=S)cc1Cl (stereo not shown) [Compound 5, 2-chloro-4-(5-(4-(4-((4-(2-(2,6-dioxopiperidin-3-yl)-1,3-dioxoisoindolin-5-yl)piperazin-1-yl)methyl)piperidin-1-yl)-3-fluorophenyl)-8-oxo-6-thioxo-5,7-diazaspiro[3.4]octan-7-yl)benzonitrile] | < 1 | A (A≥70)
11 | COc1cc(N2C(=O)C3(CCC3)N(c3ccc(N4CCC(CN5CCN(c6ccc7c(c6)C(=O)N(C6CCC(=O)NC6=O)C7=O)CC5)CC4)cc3)C2=S)ccc1C#N (stereo not shown) [Compound 7, 4-(5-(4-(4-((4-(2-(2,6-dioxopiperidin-3-yl)-1,3-dioxoisoindolin-5-yl)piperazin-1-yl)methyl)piperidin-1-yl)phenyl)-8-oxo-6-thioxo-5,7-diazaspiro[3.4]octan-7-yl)-2-methoxybenzonitrile] | 1 to 10 | B (50≤B<70)
12 | Cc1c(C#N)c(-c2ccc(C#N)cc2)c(C)n1Cc1ccc(OCCOCCOCCN2CCC(CN3CCN(c4ccc5c(c4)C(=O)N(C4CCC(=O)NC4=O)C5=O)CC3)CC2)cc1 (stereo not shown) [Compound 21, 4-(4-cyanophenyl)-1-(4-(2-(2-(2-(4-((4-(2-(2,6-dioxopiperidin-3-yl)-1,3-dioxoisoindolin-5-yl)piperazin-1-yl)methyl)piperidin-1-yl)ethoxy)ethoxy)ethoxy)benzyl)-2,5-dimethyl-1H-pyrrole-3-carbonitrile] | ≥ 100 | C (C<50)
13 | CCN(CC1CCN(CCOc2ccc(CN3C(=S)N(c4ccc(C#N)c(C(F)(F)F)c4)C(=O)C3(C)C)cn2)CC1)[C@H]1C[C@H](Oc2ccc3c(c2)C(=O)N(C2CCC(=O)NC2=O)C3=O)C1 (stereo partly shown) [Compound 16, 4-(3-((6-(2-(4-((((1r,3r)-3-((2-(2,6-dioxopiperidin-3-yl)-1,3-dioxoisoindolin-5-yl)oxy)cyclobutyl)(ethyl)amino)methyl)piperidin-1-yl)ethoxy)pyridin-3-yl)methyl)-4,4-dimethyl-5-oxo-2-thioxoimidazolidin-1-yl)-2-(trifluoromethyl)benzonitrile] | 1 to 10 | C (C<50)
14 | CC(C)N(CC1CCN(CCCCn2c(=O)n(-c3ccc(C#N)c(C(F)(F)F)c3)c3ccccc32)CC1)[C@H]1C[C@H](Oc2ccc3c(c2)C(=O)N(C2CCC(=O)NC2=O)C3=O)C1 (stereo partly shown) [Compound 24, 4-(3-(4-(4-((((1r,3r)-3-((2-(2,6-dioxopiperidin-3-yl)-1,3-dioxoisoindolin-5-yl)oxy)cyclobutyl)(isopropyl)amino)methyl)piperidin-1-yl)butyl)-2-oxo-2,3-dihydro-1H-benzo[d]imidazol-1-yl)-2-(trifluoromethyl)benzonitrile] | ≥ 100 | C (C<50)
